# Legend:
# Test in all cases: Ambit kinase phage display ATP-binding-site ligand binding assay
# [1] = target: PHKG2 (Homo sapiens, UniProt P15735); conditions: read-out: percent inhibition of binding
# Source text: (§1) This assay is based on ligand-affinity/protein kinase phage display and was employed essentially as described by Fabian et. al [Nature Biotech. […] In this assay, protein kinases are cloned into T7 bacteriophage which express the kinase fusion proteins on the phage capsid. T7 kinase-tagged phage are then screened for binding to ATP-binding-site ligands that have been immobilized on a solid support. Phage are screened for binding to the anchored ligands both in the presence of test compound and in its absence (control). Elution of the bound phage by free ligand (ATP-binding site ligand that is not immobilized on a solid support) followed by determination of the phage titre provides a reliable measure of the ability of test compounds to block binding of target kinases to resin-bound ATP-binding-site ligands.
# (§2) T7 kinase-tagged phage strains were grown in parallel in microtiter plates in a proprietary bacterial host derived from E. Coli strain BL21. E. Coli were grown to a log phase, infected with T7 kinase-tagged phage, and incubated while shaking at 32° C. until bacterial lysis (approx. 90 min). Lysates were centrifuged (6,000 g) and filtered (0.2 μm). […] The phage titre of the eluates was measured by quantitative PCR or by plaque assays. […]
# [2] = target: BTK (Homo sapiens, UniProt Q06187); conditions: read-out: % Inhibition of binding to ATP-binding-site ligand
# Source text: (§3) In this assay, protein kinases are cloned into T7 bacteriophage which express the kinase fusion proteins on the phage capsid. T7 kinase-tagged phage are then screened for binding to ATP-binding-site ligands that have been immobilized on a solid support. Phage are screened for binding to the anchored ligands both in the presence of test compound and in its absence (control). Elution of the bound phage by free ligand (ATP-binding site ligand that is not immobilized on a solid support) followed by determination of the phage titre provides a reliable measure of the ability of test compounds to block binding of target kinases to resin-bound ATP-binding-site ligands.
# (§4) T7 kinase-tagged phage strains were grown in parallel in microtiter plates in a proprietary bacterial host derived from E. Coli strain BL21. E. Coli were grown to a log phase, infected with T7 kinase-tagged phage, and incubated while shaking at 32° C. until bacterial lysis (approx. 90 min). Lysates were centrifuged (6,000 g) and filtered (0.2 μm). Small molecule ATP-binding-site-specific ligands were anchored to solid supports via a two step process beginning with biotin conjugation followed by treatment of the biotin/small molecule conjugate with streptavidin-coated magnetic beads. […] The phage titre of the eluates was measured by quantitative PCR or by plaque assays. […]
# [3] = target: CSNK2A2 (Homo sapiens, UniProt P19784); conditions: read-out: % Inhibition of binding to ATP-binding-site ligand
# Source text: as §1, §2
# [4] = target: PDGFRB (Homo sapiens, UniProt P09619); conditions: read-out: percent inhibition of binding
# Sequence of PDGFRB (P09619 33-1106): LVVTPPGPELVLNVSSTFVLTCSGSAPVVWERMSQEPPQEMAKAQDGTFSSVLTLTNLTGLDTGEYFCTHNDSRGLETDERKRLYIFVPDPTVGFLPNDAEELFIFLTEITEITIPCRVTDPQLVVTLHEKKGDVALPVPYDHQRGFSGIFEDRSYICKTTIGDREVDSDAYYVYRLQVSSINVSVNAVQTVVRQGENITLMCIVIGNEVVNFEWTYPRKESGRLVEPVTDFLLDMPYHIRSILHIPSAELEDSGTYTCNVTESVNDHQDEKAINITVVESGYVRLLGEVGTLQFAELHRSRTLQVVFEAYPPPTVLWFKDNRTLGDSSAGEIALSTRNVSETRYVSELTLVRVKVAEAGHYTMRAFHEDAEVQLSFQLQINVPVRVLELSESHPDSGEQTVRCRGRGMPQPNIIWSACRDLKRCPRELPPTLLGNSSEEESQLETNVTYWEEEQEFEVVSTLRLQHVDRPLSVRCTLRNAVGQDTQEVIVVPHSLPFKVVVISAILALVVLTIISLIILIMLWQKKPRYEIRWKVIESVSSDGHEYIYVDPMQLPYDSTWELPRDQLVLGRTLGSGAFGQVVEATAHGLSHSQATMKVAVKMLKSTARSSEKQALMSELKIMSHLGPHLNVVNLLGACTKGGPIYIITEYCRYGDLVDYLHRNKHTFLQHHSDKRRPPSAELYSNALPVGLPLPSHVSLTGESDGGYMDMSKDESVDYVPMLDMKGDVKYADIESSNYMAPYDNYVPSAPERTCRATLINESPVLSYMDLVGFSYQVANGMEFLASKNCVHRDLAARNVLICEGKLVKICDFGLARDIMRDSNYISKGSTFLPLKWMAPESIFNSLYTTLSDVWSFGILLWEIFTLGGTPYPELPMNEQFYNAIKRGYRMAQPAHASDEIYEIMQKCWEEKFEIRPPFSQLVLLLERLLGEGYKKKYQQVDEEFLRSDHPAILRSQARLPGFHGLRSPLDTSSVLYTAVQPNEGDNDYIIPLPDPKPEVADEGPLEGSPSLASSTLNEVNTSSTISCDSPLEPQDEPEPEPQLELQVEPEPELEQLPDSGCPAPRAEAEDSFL
# Source text: as §3, §4
# [5] = target: MLK1 (Homo sapiens, UniProt P80192); conditions: read-out: percent inhibition of binding
# Sequence of MLK1 (P80192 whole entry): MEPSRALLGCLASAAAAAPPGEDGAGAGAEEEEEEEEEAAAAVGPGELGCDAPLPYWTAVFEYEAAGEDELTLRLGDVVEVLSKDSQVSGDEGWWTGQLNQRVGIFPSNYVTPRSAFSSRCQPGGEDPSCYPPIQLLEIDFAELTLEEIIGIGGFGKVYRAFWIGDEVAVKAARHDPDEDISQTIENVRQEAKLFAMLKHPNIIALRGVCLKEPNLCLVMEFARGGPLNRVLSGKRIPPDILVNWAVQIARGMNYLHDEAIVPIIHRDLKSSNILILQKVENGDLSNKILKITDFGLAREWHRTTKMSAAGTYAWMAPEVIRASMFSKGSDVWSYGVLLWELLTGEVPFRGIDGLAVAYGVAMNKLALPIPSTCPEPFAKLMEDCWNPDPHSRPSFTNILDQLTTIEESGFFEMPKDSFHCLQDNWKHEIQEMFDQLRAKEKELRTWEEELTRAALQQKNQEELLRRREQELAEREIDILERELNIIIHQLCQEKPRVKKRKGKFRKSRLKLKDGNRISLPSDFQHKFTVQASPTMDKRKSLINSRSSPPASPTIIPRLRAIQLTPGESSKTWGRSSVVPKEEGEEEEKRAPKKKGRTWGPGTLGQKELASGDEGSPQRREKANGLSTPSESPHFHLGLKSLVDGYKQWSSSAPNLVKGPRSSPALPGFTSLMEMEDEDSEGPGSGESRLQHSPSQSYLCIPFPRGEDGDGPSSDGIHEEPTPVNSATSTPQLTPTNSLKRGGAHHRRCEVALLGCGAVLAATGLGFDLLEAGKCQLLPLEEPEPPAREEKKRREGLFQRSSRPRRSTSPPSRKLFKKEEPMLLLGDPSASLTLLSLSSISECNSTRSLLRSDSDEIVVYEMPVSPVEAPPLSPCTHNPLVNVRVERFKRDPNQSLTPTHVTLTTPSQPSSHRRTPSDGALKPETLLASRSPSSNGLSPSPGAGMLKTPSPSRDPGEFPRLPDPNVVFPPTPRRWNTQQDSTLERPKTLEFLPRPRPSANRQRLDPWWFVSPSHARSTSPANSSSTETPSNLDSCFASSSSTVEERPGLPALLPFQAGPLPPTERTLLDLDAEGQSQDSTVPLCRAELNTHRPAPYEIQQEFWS
# Source text: as §3, §4
# [6] = target: IKK-α (Homo sapiens, UniProt O15111); conditions: read-out: % Inhibition of binding to ATP-binding-site ligand
# Sequence of IKK-α (O15111 whole entry): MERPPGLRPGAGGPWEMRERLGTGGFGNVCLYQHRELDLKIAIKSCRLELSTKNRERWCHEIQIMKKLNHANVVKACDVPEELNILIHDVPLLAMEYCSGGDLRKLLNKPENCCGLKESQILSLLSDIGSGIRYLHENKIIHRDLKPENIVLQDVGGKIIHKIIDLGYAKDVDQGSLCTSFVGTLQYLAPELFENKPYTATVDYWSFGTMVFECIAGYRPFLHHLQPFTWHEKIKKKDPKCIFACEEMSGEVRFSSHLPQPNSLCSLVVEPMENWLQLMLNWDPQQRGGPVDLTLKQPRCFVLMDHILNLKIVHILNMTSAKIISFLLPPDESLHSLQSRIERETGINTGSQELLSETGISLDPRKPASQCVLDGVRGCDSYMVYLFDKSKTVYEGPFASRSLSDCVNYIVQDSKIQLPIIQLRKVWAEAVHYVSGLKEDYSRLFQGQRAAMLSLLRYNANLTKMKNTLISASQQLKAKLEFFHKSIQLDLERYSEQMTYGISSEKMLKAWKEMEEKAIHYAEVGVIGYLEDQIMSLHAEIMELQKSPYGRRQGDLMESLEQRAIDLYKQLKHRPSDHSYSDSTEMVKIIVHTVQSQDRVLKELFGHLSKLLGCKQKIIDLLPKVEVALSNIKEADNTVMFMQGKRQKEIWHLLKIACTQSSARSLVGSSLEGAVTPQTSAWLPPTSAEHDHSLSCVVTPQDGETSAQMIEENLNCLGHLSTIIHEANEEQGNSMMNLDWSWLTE
# Source text: as §3, §4
# Sequence of PHKG2 (P15735 whole entry): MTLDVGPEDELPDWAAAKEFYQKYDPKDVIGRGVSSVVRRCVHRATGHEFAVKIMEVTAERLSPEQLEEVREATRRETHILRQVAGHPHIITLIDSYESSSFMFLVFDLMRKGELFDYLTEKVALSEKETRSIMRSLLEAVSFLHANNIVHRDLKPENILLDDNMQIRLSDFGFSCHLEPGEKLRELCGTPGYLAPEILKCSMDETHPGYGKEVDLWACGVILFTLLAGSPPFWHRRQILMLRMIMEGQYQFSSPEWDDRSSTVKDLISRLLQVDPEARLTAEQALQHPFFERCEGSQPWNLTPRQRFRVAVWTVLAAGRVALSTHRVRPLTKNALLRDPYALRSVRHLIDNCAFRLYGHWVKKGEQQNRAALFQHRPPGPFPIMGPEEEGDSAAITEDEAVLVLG
# Sequence of CSNK2A2 (P19784 whole entry): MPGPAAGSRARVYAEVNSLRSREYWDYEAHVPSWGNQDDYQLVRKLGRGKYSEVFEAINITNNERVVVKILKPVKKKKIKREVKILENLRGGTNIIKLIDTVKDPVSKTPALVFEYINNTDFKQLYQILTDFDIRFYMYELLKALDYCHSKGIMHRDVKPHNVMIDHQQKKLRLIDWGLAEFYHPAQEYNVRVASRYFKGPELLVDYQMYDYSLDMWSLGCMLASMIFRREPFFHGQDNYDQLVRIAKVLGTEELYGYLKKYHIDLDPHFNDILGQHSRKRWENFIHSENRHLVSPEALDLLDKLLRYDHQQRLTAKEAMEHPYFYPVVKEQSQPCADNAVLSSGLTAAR
# Sequence of BTK (Q06187 whole entry, species assumed): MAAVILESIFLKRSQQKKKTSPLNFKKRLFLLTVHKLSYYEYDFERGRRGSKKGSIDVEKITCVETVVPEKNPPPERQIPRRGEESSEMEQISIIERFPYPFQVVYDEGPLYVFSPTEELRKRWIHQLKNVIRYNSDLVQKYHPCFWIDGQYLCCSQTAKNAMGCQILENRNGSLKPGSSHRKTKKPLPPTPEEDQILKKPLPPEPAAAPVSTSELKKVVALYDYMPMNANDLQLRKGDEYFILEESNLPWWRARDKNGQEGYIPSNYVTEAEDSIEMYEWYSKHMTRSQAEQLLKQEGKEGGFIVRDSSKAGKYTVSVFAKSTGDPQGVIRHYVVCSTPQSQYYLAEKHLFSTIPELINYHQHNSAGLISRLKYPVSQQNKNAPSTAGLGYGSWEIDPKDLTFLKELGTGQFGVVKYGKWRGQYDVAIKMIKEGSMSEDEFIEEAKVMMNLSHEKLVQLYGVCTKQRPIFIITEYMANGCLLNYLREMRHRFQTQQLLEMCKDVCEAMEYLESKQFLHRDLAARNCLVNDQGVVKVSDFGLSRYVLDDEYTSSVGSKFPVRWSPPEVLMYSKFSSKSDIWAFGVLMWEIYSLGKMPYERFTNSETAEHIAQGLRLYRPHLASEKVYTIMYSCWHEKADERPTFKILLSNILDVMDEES
smiles,measurement,setting,value
CCOC(=O)C[C@@H]1C(O[Si](C)(C)C(C)(C)C)[C@H](n2cnc3c(NC(=O)Nc4ccccc4)ncnc32)O[C@@H]1CNC(=O)NC (stereo partly drawn) [Compound 10],inhibition at 10 µM,[1],20 to 29%
same,inhibition at 10 µM,[2],35%
same,inhibition at 10 µM,[3],31%
same,inhibition at 10 µM,[4],20 to 29%
same,inhibition at 10 µM,[5],20 to 29%
same,inhibition at 10 µM,[6],37%

# — patent US20100152434A1, “Protein Kinase-binding Nucleosides and Associated Methods” (priority 2007, published 2010)
